Where a name gives a salt, the structure may show the parent alone.
Columns and labels:
[1] = molecular target: Cdc7/Dbf4 (Homo sapiens, UniProt O00311); experiment: Cdc7 Biochemical Assay Method 3: Cdc7/Dbf4 Enzyme TR-FRET Assay measuring pS40MCM2; settings: 1 μM ATP, read-out: Biochemical Method 3 (pIC50) (converted)
How it was run: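 TR-FRET read-out (terbium anti-rabbit donor, streptavidin-Alexa Fluor488 acceptor, anti-Mcm2 pS40 antibody) of peptide phosphorylation after 120 min at 25° C; reaction held 1 μM ATP, 100 nM biotin-tagged peptide substrate and 2.5 nM enzyme complex.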

[2] = tested on: Cdc7 (pS40MCM2 levels in HCT116 cells); experiment: Cdc7 Cell Pharmacodynamics Assay Method 2A: pS40MCM2 levels in HCT116 cells, 6 hours; format: cell-based; settings: Homo sapiens, HCT-116, read-out: Biomarker Method 2A (pEC50) (converted)
How it was run: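 HCT116 cells seeded at 20,000/well, settled overnight, then treated with compound (1:400 dilution from compound plate) for 6 h (Method 2A) or 18 h (Method 2B) at 37° C. Lysates captured on total-MCM2 antibody plates; pS40 MCM2 detected with rabbit anti-pMCM2 Ser40, HRP secondary and chemiluminescent substrate.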

Cdc7/Dbf4, sequence (O00311 whole entry): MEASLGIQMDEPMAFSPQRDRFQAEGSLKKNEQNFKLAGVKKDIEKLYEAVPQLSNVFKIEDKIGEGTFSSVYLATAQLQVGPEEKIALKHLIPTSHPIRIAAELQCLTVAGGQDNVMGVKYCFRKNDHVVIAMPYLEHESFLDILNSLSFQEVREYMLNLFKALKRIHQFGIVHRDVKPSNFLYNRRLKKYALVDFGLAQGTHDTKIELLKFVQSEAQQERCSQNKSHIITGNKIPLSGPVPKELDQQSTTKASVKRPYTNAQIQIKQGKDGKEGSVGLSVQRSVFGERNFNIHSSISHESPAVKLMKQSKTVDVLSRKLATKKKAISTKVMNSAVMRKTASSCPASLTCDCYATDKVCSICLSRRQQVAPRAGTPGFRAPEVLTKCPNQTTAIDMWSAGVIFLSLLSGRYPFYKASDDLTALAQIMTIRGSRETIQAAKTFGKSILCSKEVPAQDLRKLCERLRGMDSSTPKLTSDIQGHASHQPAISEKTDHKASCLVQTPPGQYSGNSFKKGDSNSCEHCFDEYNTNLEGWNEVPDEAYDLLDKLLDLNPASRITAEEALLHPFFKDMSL
Cdc7/Dbf4, sequence (Q9UBU7 whole entry partner): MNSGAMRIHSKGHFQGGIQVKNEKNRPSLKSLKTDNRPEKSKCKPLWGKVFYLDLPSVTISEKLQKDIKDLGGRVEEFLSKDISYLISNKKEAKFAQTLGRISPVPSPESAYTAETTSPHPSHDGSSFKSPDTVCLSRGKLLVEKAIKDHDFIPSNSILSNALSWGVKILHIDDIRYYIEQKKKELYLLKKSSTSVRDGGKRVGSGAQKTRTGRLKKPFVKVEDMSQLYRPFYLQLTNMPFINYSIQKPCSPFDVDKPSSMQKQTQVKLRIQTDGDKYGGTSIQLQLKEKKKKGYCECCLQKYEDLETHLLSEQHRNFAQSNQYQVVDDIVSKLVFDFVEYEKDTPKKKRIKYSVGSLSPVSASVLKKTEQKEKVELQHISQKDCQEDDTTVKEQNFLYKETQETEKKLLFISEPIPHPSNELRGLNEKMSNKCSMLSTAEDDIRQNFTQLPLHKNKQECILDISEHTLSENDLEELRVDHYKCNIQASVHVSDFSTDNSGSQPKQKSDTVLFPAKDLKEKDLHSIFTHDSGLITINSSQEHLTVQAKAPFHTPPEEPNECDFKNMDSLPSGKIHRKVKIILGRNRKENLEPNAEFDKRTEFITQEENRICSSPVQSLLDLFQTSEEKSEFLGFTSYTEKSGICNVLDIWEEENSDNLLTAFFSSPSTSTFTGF

| Compound | IC50 [1] [nM] | EC50 [2] [nM] |
| --- | --- | --- |
| C[C@H]1CN(c2nc(-c3ccncc3)[nH]c(=O)c2Cl)CCN1 [Compound 130] | 2.34 | 776 |
| O=c1[nH]c(-c2ccncc2)nc(N2CCN[C@H](C(F)(F)F)C2)c1Cl [Compound 139] | 4.07 | 851 |
| O=c1[nH]c(-c2ccncc2)nc(N2CCN(CC(F)F)CC2)c1Cl [Compound 147] | 1.55 | 427 |
| O=c1[nH]c(-c2ccncc2)nc(N2CCN[C@@H](C(F)(F)F)C2)c1Cl [Compound 180] | 1.38 | 37.2 |
| CC(C)(C)[C@H]1CN(c2nc(-c3ccncc3)[nH]c(=O)c2F)CCN1 [Compound 185] | 0.724 | 85.1 |
| C[C@@H]1CNCCN1c1nc(-c2ccnc(F)c2)[nH]c(=O)c1Cl [Compound 323] | 0.537 | 12 |
| C[C@@H]1CNCCN1c1nc(-c2ccncc2)[nH]c(=O)c1Cl [Compound 364] | 1.41 | 26.9 |

Now from value to molecule:

| IC50 [1] [nM] | EC50 [2] [nM] | Compound |
| --- | --- | --- |
| 0.355 |  | O=c1[nH]c(-c2ccnc(F)c2)nc(N2CCCC(F)(F)C2)c1Cl [Compound 90, 5-chloro-4-(3,3-difluoro-1-piperidyl)-2-(2-fluoro-4-pyridyl)-1H-pyrimidin-6-one] |
| 1.05 | 21.9 | CC(C)[C@H]1CN(c2nc(-c3ccnc(F)c3)[nH]c(=O)c2Cl)CCN1 [Compound 170] |
| 0.589 | 11.5 | O=c1[nH]c(-c2ccnc(F)c2)nc(N2CCNCC(F)(F)C2)c1Cl [Compound 312, 5-chloro-4-(6,6-difluoro-1,4-diazepan-1-yl)-2-(2-fluoro-4-pyridyl)-1H-pyrimidin-6-one hydrochloride] |
| 0.525 | 44.7 | O=c1[nH]c(-c2ccnc(F)c2)nc(N2CCOCC2)c1Cl [Compound 316] |
| 0.676 | 219 | N[C@H]1CCCN(c2nc(-c3ccnc(F)c3)[nH]c(=O)c2Cl)C1 [Compound 317] |
| 0.933 | 126 | N[C@@H]1CCCN(c2nc(-c3ccnc(F)c3)[nH]c(=O)c2Cl)C1 [Compound 319] |
| 0.871 | 83.2 | O=c1[nH]c(-c2ccnc(F)c2)nc(N2CCNCC2)c1Cl [Compound 360] |
